{
  "source": "patent US4321208A",
  "about": "“Preparation of directly iodinated steroid hormones and related compounds” (priority 1976, dated 1982)",
  "key": {"anti-serum": {"test_system": "anti-serum", "settings": "Abraham and Odell; iodinated at positions 2 and 4; cited from earlier work"}, "[1]": {"test_system": "breast cancer tumor tissue", "settings": "injected; patients responding to endocrine treatment vs those who do not respond; cited from earlier work"}, "[2]": {"test_system": "antiserum against estradiol-17 beta", "assay": "Radioimmunoassay: competition of nonradioactive estradiol with ^125 I estradiol-17 beta for antiserum", "format": "binding", "settings": "antiserum 1:10,000 or 1:20,000; ^125 I estradiol-17 beta 70 Ci/mM", "method": "The procedure of this assay are identical as described by the instant inventor and authors C. […] After incubation, the unbound hormone was removed by charcoal adsorption."}},
  "data": [
    {"smiles": "C[C@]12CC[C@@H]3c4cc(I)c(O)c(I)c4CC[C@H]3[C@@H]1CC[C@@H]2O", "values": [
      {"measurement": "binding to anti-serum", "setting": "anti-serum", "value": "unable to bind the anti-serum"}
    ]},
    {"smiles": "C[C@]12CC[C@@H]3c4ccc(O)cc4CC[C@H]3[C@@H]1CC[C@@H]2O", "note": "[tritiated estradiol]", "values": [
      {"measurement": "concentration of tritiated hormone in tumor tissue", "setting": "[1]", "value": "usually concentrate more tritiated hormones in their tumor tissue"}
    ]},
    {"smiles": "C[C@]12CC[C@@H]3c4ccc(O)cc4CC[C@H]3[C@@H]1CC[C@@H]2O", "note": "[unlabelled estradiol, estradiol]", "values": [
      {"measurement": "effect of unlabelled estradiol on percent bound ^125 I estradiol", "setting": "[2]", "value": "the percent bound ^125 I estradiol decreases"}
    ]}
  ]
}
